We go through 9 compounds from patent US8361968B2 (Takeda Pharmaceutical Company Limited, priority 2002, dated 2013).

Data set [1] concerns hOT7T175-expressed CHO cells. It counts as cell-based. The protocol:
Assay for Cell Growth Inhibition Activity in hOT7T175-Expressed Cho Cells hOT7T175-Expressed CHO cells (hereinafter hOT7T175) were cultured in DMEM supplemented with 10% dialyzed FBS (hereinafter 10% dFBS/DMEM), which was used for the following assay. The hOT7T175 was suspended in 10% dFBS/DMEM at 10,000 cells/ml. The cells were plated on a 96 well plate at 100 μL each/well (1,000 cells/well), followed by culturing overnight at 37° C. in a 5% CO2 incubator. On the following day, the medium was removed and 90 μL of 10% dFBS/DMEM supplemented with 0.5% BSA (hereinafter, 0.5% BSA/10% dFBS/DMEM) was added. […] After 10 μL of Cell Counting Kit-8 solution (Dojin Chemical Laboratory) was added to each well, incubation was performed at 37° C. in a 5% CO2 incubator for 4 hours and absorbance was measured at 450 nm.

Data set [2] in a line: in vitro. The following applies: female, Balb/c, mouse, serum.
Description: (§1) Blood was drawn from Balb/c mice (female) of 8 weeks old, settled at 37° C. for 30 minutes and centrifuged at 13000 rpm for 10 minutes to give the serum as the supernatant. The serum thus obtained was frozen-stored at −80° C.
(§2) The stability test was performed by addition of 5 nmol of Compound (5 μL of aqueous solution) to 45 μL of serum and then settlement of the mixture at 37° C. The settlement was made at 3 points of time, including 2, 10 and 30 minutes. The sample after the settlement was boiled for 3 minutes and cooled on an ice bath. After 200 μL of acetonitrile/water (3/1) was added to the sample, the mixture was ultrasonicated for 5 minutes and then centrifuged at 5000 rpm for 1 minute. After 150 μL of the supernatant was diluted with 250 μL of distilled water, insoluble matters were removed by filtration through a filter having a pore size of 0.45 μm and 200 μL of the filtrate was applied on HPLC (220 nm) to determine the peak area of Compound. A ratio of the peak area to the area when Compound was treated for 0 minute under the same conditions was calculated as a mean value in 4 respective runs to determine the residual ratio. Next, by taking the calculated residual ratio on the ordinate and the time on the abscissa, a graph was prepared and approximated by an exponential function.
(§3) The preparative HPLC used was the LC-VP series manufactured by Shimadzu Corporation and Wakosil-II 5C18 HG (4.6 mm×100 mm) manufactured by Wako Pure Chemical Industries, Ltd. was used as the column. Eluant A (0.1% TFA-containing water) and eluant B (0.1% TFA-containing acetonitrile) were used as eluants. Analysis was performed by linear density gradient elution (25 minutes) at a flow rate of 1.0 ml/min. using eluants A/B: 100/0-0/50.
The target of data set [3] is T1, hOT7T175 (Homo sapiens, UniProt Q969F8, L364H). The data set is described as follows: Intracellular Ca ion level-increasing activity using FLIPR in hOT7T175/CHO. It counts as cell-based. On the set-up: expressed in transfected cells; host or cells: CHO/dhfr- cells, obtained from ATCC. As to conditions: relative, Metastin (1-54) = 1.
T1 sequence (Q969F8 whole entry L364H): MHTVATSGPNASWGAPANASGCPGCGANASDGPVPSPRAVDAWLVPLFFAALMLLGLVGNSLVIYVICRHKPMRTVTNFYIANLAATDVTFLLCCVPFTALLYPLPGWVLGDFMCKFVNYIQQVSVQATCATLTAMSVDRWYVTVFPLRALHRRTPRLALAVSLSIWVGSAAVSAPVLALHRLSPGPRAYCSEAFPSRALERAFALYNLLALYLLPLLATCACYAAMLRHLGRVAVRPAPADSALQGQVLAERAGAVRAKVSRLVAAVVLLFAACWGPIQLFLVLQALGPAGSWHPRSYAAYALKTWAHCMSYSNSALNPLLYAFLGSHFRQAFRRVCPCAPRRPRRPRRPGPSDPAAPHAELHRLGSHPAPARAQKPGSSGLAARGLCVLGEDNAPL
A short description of data set [4]: Stability of compound in blood (mouse serum, half life). As to conditions: female, Balb/c.
Description: as §1, §2, §3
Data set [5] addresses T1, hOT7T175. The data set is described as follows: hOT7T175 receptor binding activity: binding inhibition of Cy-5-labeled metastin (40-54) on hOT7T175-expressed CHO cells. On the set-up: expressed in transfected cells; host or cells: CHO cells.
[6] abbreviates: hOT7T175-expressed CHO cells, 3 days culture, Cell Counting Kit-8, read-out: IC50 (M), cell growth inhibition activity.

Like-named read-outs stand apart in the source and are kept apart here. Square brackets hold non-standard residues; d marks the D form. Peptide text beside a SMILES is read from it. Arg(Me) = CNC(=N)NCCC[C@H](N)C(=O)O; 4Pal = N[C@@H](Cc1ccncc1)C(=O)O; azaGly = NNC(=O)O

Consider `CC(C)C[C@H](NC(=O)CNC(=O)[C@H](Cc1ccccc1)NC(=O)[C@H](CO)NC(=O)[C@H](CC(N)=O)NC(=O)[C@H](Cc1c[nH]c2ccccc12)NC(=O)[C@H](CC(N)=O)NC(=O)[C@@H](N)Cc1ccc(O)cc1)C(=O)N[C@@H](CCCNC(=N)N)C(=O)N[C@@H](Cc1ccccc1)C(N)=O` [45-54], for which the concentration for half-maximal inhibition (IC50) (in general, the concentration that inhibits the measured activity by half) in data set [1] (setting [6]) came out at 8.51e-06 M.
For `CNC(=N)NCCC[C@H](NC(=O)[C@H](CC(C)C)NC(=O)CNC(=O)[C@H](Cc1ccccc1)NC(=O)[C@H](CO)NC(=O)[C@H](CC(N)=O)NC(=O)[C@H](Cc1c[nH]c2ccccc12)NC(=O)[C@H](CC(N)=O)NC(=O)[C@H](N)Cc1ccc(O)cc1)C(=O)N[C@@H](Cc1ccccc1)C(N)=O` [Compound No. 141], the half-life – broadly, the time needed for the level to fall by half in the phase considered – at 100 µM in data set [2] amounted to 8.7 min. Further, the “Specific Activity (intracellular Ca ion level-increasing activity)” value in data set [3] worked out at 10. For the same compound, 8.7e-08 M corresponded to half-maximal inhibition in data set [1] (IC50).
Turning to `CC(C)C[C@H](NC(=O)CNC(=O)[C@H](Cc1ccccc1)NC(=O)[C@H](CO)NC(=O)[C@H](CC(N)=O)NC(=O)[C@H](Cc1c[nH]c2ccccc12)NC(=O)[C@H](CC(N)=O)NC(=O)[C@@H](N)Cc1ccc(O)cc1)C(=O)N[C@@H](CCCNC(=N)N)C(=O)N[C@@H](Cc1ccccc1)C(N)=O` [Compound No. 3, reference compound], the “Specific Activity (intracellular Ca ion level-increasing activity)” value in data set [3] is 10. In data set [4], this compound showed a half-life at 100 µM of 0.6 min.
With `CNC(=N)NCCC[C@H](NC(=O)[C@H](CC(C)C)NC(=O)NNC(=O)[C@H](Cc1ccccc1)NC(=O)[C@H](CO)NC(=O)[C@H](CC(N)=O)NC(=O)[C@H](Cc1ccncc1)NC(=O)[C@@H](CC(N)=O)NC(=O)[C@H](N)Cc1ccc(O)cc1)C(=O)N[C@@H](Cc1ccccc1)C(N)=O` [Compound No. 303, D-Tyr-D-Asn-Pya(4)-Asn-Ser-Phe-AzaGly-Leu-Arg(Me)-Phe-NH2] (H-[dY][dN][4Pal]NSF[azaGly]L[Arg(Me)]F-NH2), the “Specific Activity (intracellular Ca ion level-increasing activity)” value in data set [3] was 5. The IC50 in data set [1] (setting [6]) was found to be 4.12e-08 M.
As to `CNC(=N)NCCC[C@H](NC(=O)[C@H](CC(C)C)NC(=O)NNC(=O)[C@H](Cc1ccccc1)NC(=O)[C@H](CO)NC(=O)[C@H](CC(N)=O)NC(=O)[C@H](Cc1ccncc1)NC(=O)[C@H](CC(N)=O)NC(=O)[C@H](N)Cc1ccc(O)cc1)C(=O)N[C@@H](Cc1ccccc1)C(N)=O` [Compound No. 286, D-Tyr-Asn-Pya(4)-Asn-Ser-Phe-AzaGly-Leu-Arg(Me)-Phe-NH2] (H-[dY]N[4Pal]NSF[azaGly]L[Arg(Me)]F-NH2), the “Specific Activity (intracellular Ca ion level-increasing activity)” value in data set [3] is 2. For the same compound, the IC50 in data set [1] (setting [6]) was determined as 1.83e-08 M.
Turning to `CNC(=N)NCCC[C@H](NC(=O)[C@H](CC(C)C)NC(=O)CC(=O)N[C@H](Cc1ccccc1)NC(=O)[C@H](CO)NC(=O)[C@H](CC(N)=O)NC(=O)[C@H](Cc1c[nH]c2ccccc12)NC(=O)[C@H](CC(N)=O)NC(=O)[C@H](N)Cc1ccc(O)cc1)C(=O)N[C@@H](Cc1ccccc1)C(N)=O` [Compound No. 319, D-Tyr-Asn-Trp-Asn-Ser-PheΨ(NHCO)Gly-Leu-Arg(Me)-Phe-NH2], the “Specific Activity (intracellular Ca ion level-increasing activity)” value in data set [3] was found to be 3. Also, the half-life at 100 µM in data set [4] is 33 min.
For `CC[C@H](C)[C@H](NC(=O)[C@H](CCC(N)=O)NC(=O)[C@H](CCCNC(=N)N)NC(=O)[C@H](CO)NC(=O)[C@H](Cc1c[nH]cn1)NC(=O)[C@@H]1CCCN1C(=O)[C@H](C)NC(=O)[C@H](CO)NC(=O)[C@H](CC(C)C)NC(=O)CNC(=O)[C@@H]1CCCN1C(=O)[C@H](CCC(N)=O)NC(=O)[C@H](CCC(N)=O)NC(=O)[C@H](CCCNC(=N)N)NC(=O)[C@H](CO)NC(=O)CNC(=O)[C@H](CO)NC(=O)[C@H](CO)NC(=O)[C@H](CCC(=O)O)NC(=O)[C@@H]1CCCN1C(=O)[C@@H]1CCCN1C(=O)[C@@H]1CCCN1C(=O)[C@H](CO)NC(=O)[C@H](CC(C)C)NC(=O)[C@H](CO)NC(=O)[C@@H](NC(=O)CN)[C@@H](C)O)C(=O)N1CCC[C@H]1C(=O)N[C@@H](C)C(=O)N1CCC[C@H]1C(=O)N[C@@H](CCC(N)=O)C(=O)NCC(=O)N[C@@H](C)C(=O)N[C@H](C(=O)N[C@@H](CC(C)C)C(=O)N[C@H](C(=O)N[C@@H](CCC(N)=O)C(=O)N[C@@H](CCCNC(=N)N)C(=O)N[C@@H](CCC(=O)O)C(=O)N[C@@H](CCCCN)C(=O)N[C@@H](CC(=O)O)C(=O)N[C@@H](CC(C)C)C(=O)N1CCC[C@H]1C(=O)N[C@@H](CC(N)=O)C(=O)N[C@@H](Cc1ccc(O)cc1)C(=O)N[C@@H](CC(N)=O)C(=O)N[C@@H](Cc1c[nH]c2ccccc12)C(=O)N[C@@H](CC(N)=O)C(=O)N[C@@H](CO)C(=O)N[C@@H](Cc1ccccc1)C(=O)NCC(=O)N[C@@H](CC(C)C)C(=O)N[C@@H](CCCNC(=N)N)C(=O)N[C@@H](Cc1ccccc1)C(N)=O)C(C)C)C(C)C` [1-54], in data set [1], the IC50 is 2.12e-07 M.
With `CC(C)C[C@H](NC(=O)CNC(=O)[C@H](Cc1ccccc1)NC(=O)[C@H](CO)NC(=O)[C@H](CC(N)=O)NC(=O)[C@H](Cc1c[nH]c2ccccc12)NC(=O)[C@H](CC(N)=O)NC(=O)[C@H](N)Cc1ccc(O)cc1)C(=O)N[C@@H](CCCNC(=N)N)C(=O)N[C@@H](Cc1ccccc1)C(N)=O` [Compound No. 42], in data set [3], the “Specific Activity (intracellular Ca ion level-increasing activity)” value came to 30. Moreover, the half-life at 100 µM in data set [4] stood at 0.7 min.
`CNC(=N)NCCC[C@H](NC(=O)[C@H](CC(C)C)NC(=O)NNC(=O)[C@H](Cc1ccccc1)NC(=O)[C@H](CO)NC(=O)[C@H](CC(N)=O)NC(=O)[C@H](Cc1c[nH]c2ccccc12)NC(=O)[C@H](CC(N)=O)NC(=O)[C@H](N)Cc1ccc(O)cc1)C(=O)N[C@@H](Cc1ccccc1)C(N)=O` [Compound No. 232, D-Tyr-Asn-Trp-Asn-Ser-Phe-AzaGly-Leu-Arg(Me)-Phe-NH2] showed a half-life at 100 µM in data set [2] of 28.2 min. Besides, the “Specific Activity (intracellular Ca ion level-increasing activity)” value in data set [3] is recorded as 3. In addition, the figures for the IC50 in data set [5] and in data set [1] were 49 nM and 9.67e-09 M, respectively.
